{"source": "patent US11660326B2", "about": "“Bacterial-binding peptides for treatment of infectious diseases and related inflammatory processes” (priority 2018, dated 2023)", "key": {"[1]": {"test": "Solid phase binding assay (ELISA) of biotin-labeled peptides to immobilized LPS", "set-up": "species or system E. coli", "conditions": "biotin-labeled peptide 5-20 μg/mL; LPS 5 μg/mL coated", "method": "(§1) FIG. 3. Binding of biotin-labeled CD6-derived peptides to immobilized PAMPs from Gram- and Gram+ origin. Increasing concentrations (5-20 μg/mL) of biotin-labeled CD6- (PD1, PD2, PD3 and cons), DMBT1- (pbs1), and CD5- (PD1) derived peptides were added to 96-well ELISA plates sensitized with E. coli 0111:B4 LPS (A) or S. aureus LTA (B) (5 μg/mL each in PBS). Following overnight incubation at 4° C. bound peptides or proteins were developed by addition of horseradish peroxidase (HRP)-labeled streptavidin and 3,3′,5,5′-tetramethylbenzidine (TMB) substrate and further readings at OD 405-620 nm. Results are expressed as mean±SD of duplicates from one representative experiment of three performed. Statistical analysis was performed by two-way ANOVA (*,P<0.05; **, P<0.01; ***, P<0.001).\n(§2) Solid Phase Binding Assays. 96-well microtiter plates (Nunc, Roskilde, Denmark) were coated overnight at 4° C. with 5 μg/mL of purified LPS (E. coli 0111:B4, Sigma L2630) or LTA (S. aureus, Sigma L2515) in PBS, and then incubated for 2 h at room temperature in blocking solution (20 mM Tris-HCl pH 7.4 plus 0.05% Tween 20 and 1% BSA). Biotin-labeled peptides/proteins (2.5-20 μg/mL) were added and incubated overnight at 4° C. in blocking solution. After extensive washing, bound peptides/proteins were detected by the addition of horseradish peroxidase (HRP)-labeled streptavidin (1:5,000 dilution; DAKO) for 1 h at room temperature. Color was developed by adding 3,3′,5,5′-tetramethylbenzidine (TMB) liquid substrate (Sigma), and optical density read at 405-620 nm."}, "[2]": {"test_system": "mice undergoing CLP-induced septic shock", "test": "Blood and spleen bacterial load following CLP-induced sepsis", "type": "in vivo, C57BL/6J mice", "conditions": "20 h post CLP; 6 mg/kg i.v. at +1 h; vs saline control group", "method": "(§3) FIG. 9. Therapeutic effect of CD6.PD3 infusion on cytokine and bacterial load levels following CLP-induced sepsis. (A) C57BL/6J mice were i.v. infused at +1 h post CLP with saline (n=7) or CD6.PD3 peptide (6 mg/kg; n=9), and cytokine plasma levels were monitored by ELISA at different time points (4 h and 20 h) thereafter. Data are expressed as mean±SD. (B) Same mouse groups as in (A) were monitored for blood and spleen bacterial load at 20 h following CLP induction. Data are expressed as mean±SD of CFU/mg (spleen) or CFU/μL (blood). In all cases, statistical differences were evaluated using a 2-tailed Student t-test (*, P<0.05).\nFor the assessment of bacterial load, blood and spleen samples from CLP-treated mice were collected, homogenized and diluted aseptically in sterile PBS. Serial dilutions were plated overnight on agar with 5% sheep blood (Becton Dickinson) at 37° C. Viable bacterial counts were expressed as CFU/mL (blood) or per mg (spleen)."}, "[3]": {"test": "Solid phase binding assay (ELISA) of biotin-labeled peptides to immobilized LTA", "set-up": "species or system S. aureus", "conditions": "biotin-labeled peptide 5-20 μg/mL; LTA 5 μg/mL coated", "method": "as §1, §2"}, "[4]": {"test_system": "mice undergoing CLP-induced septic shock", "test": "Plasma cytokine levels following CLP-induced sepsis", "type": "in vivo, C57BL/6J mice", "conditions": "20 h post CLP; 6 mg/kg i.v. at +1 h; vs saline-treated group", "method": "as §3\nAnimal procedures were approved by the Animal Experimentation Ethical Committee, University of Barcelona. High-grade mortality (≥90% mortality within the first 48-72 h) CLP-induced septic shock was induced in 8-10 week old C57BL/6J male mice (20-25 g; Charles River) as previously reported (Martinez-Florensa M, et al., 2017, Protective Effects of Human and Mouse Soluble Scavenger-Like CD6 Lymphocyte Receptor in a Lethal Model of Polymicrobial Sepsis, Antimicrob Agents Chemother 61:e01391-16)."}}, "data": [{"sequence": "GQVEVHFRGVW (CD6.PD3)", "values": [{"measurement": "binding to immobilized LPS (ELISA)", "setting": "[1]", "result": "excelled in its ability to bind"}, {"measurement": "CFU isolated from blood", "setting": "[2]", "result": "lower CFU"}, {"measurement": "CFU isolated from spleen", "setting": "[2]", "result": "lower CFU"}, {"measurement": "binding to immobilized LTA (ELISA)", "setting": "[3]", "result": "excelled in its ability to bind"}, {"measurement": "IL-1β level", "setting": "[4]", "result": "significant lower levels"}, {"measurement": "IL-6 level", "setting": "[4]", "result": "significant lower levels"}, {"measurement": "TNF-α level", "setting": "[4]", "result": "significant lower levels"}]}]}
